Where two headings read alike, the source gives them in different places.
What was measured:
[1] = system: OXPHOS proteins (vATP5A, UQCR2, SDHB, COXII, NDUFB8) in KP4 cells; assay: Immunoblot of OXPHOS mitochondrial respiratory chain proteins; type: cell-based; settings: KP4, 24 h of treatment
Description: (§1) Immunoblot analysis: For the protein degradation assay, cells were seeded at a density of 1 × 10^5 cells per well in 6-well plates overnight, and then treated with vehicle and compounds for 24 h. The culture medium was removed. Cells were washed twice with cold PBS and lysed with LAEMMLI 2X (BIO-RAD, Hercules, CA, USA, 4% SDS, 20% glycerol, 0.125 M Tris-HCl (pH 6.8)). Equal amounts of protein were separated via sodium dodecyl sulfate-polyacrylamide gel electrophoresis (SDS-PAGE) and transferred to nitrocellulose membranes. […] Membranes were washed again with TBST and incubated with the primary antibody overnight at 4 °C. After being washed with TBST three times, the membranes were incubated with the secondary antibody for 1 h. After being washed with TBST three times, membranes were visualized using chemiluminescence using a Western Lightning™ Plus Chemiluminescence Reagent.

[2] = system: KP4 pancreatic cancer cells; assay: Cell proliferation assay (crystal violet), EC50 determination; type: cell-based; settings: for impact on the growth of cancer cells: KP4 and PANC1
Description: (§2) Materials and methods for in vitro experiments: Absorbance measurements for EC50 determination were performed using a SpectraMax 190 microplates reader from Molecular Devices. […] Statistical analyses were also performed using the PRISM software, using a one-way ANOVA test. Protein concentrations were determined using a Nanodrop 2000c spectrophotometer from Thermo Scientific (Waltham, MA, USA). A ChemiDoc MP Imaging System from BIO-RAD (Hercules, CA, USA) was used for imaging and analyzing Western blots. Resulting data were treated with Image Lab software (version 6.1).
(§3) Cells were seeded at a density of 1 × 10^3 cells per well for KP4 and PANC1, 4 × 10^3 for IMR90, and 2 × 10^3 for hTERT-HPNE in 96 well plates one day prior to treatments with vehicle and compounds for 72 h. The culture medium was removed. Cells were washed twice with cold PBS, and 1% glutaraldehyde was added to the wells for fixation for 10 min. Cells were then washed with water, stained with 0.2% crystal violet for 30 min at room temperature, washed with water, and then dried. The adherent crystal violet was solubilized in 10% acetic acid and the absorbance was read at a wavelength of 590 nm for the calculation of the cell viability.

[3] = system: hTERT-HPNE (immortalized pancreatic cells, healthy cells); assay: as above; type: cell-based, Human; settings: for EC50: Homo sapiens, 72 h of treatment, mean ± SD; for effect on healthy cell line hTERT-HPNE (toxicity): at the concentrations examined
Description: as §2
Cell Lines: Human pancreatic normal epithelial (HPNE hTERT) cells were obtained from Dr. M. Ouellette (University of Nebraska Medical Center). IMR90 was obtained from Coriell Institute (I90-79). PANC1 was obtained from ATCC and KP4 from the Massachusetts General Hospital Center for Molecular Therapeutics (CMT), courtesy of Dr. Bardeesy. […] All cell lines tested negative for mycoplasma contamination. No unpublished de novo cell lines were used.
as §3

[4] = system: IMR90 (lung fibroblasts, healthy cells); assay: as above; type: cell-based; settings: for EC50: Homo sapiens, IMR-90, 72 h of treatment, mean ± SD; for effect on healthy cell line IMR90 (toxicity): at the concentrations examined
Description: (§4) Materials and methods for in vitro experiments: Absorbance measurements for EC50 determination were performed using a SpectraMax 190 microplates reader from Molecular Devices. Resulting data were analyzed with PRISM software (version 10.3.0) using curve fitting with non-linear regression (log(inhibitor) vs. response—variable slope (four parameters)). Statistical analyses were also performed using the PRISM software, using a one-way ANOVA test. Protein concentrations were determined using a Nanodrop 2000c spectrophotometer from Thermo Scientific (Waltham, MA, USA). A ChemiDoc MP Imaging System from BIO-RAD (Hercules, CA, USA) was used for imaging and analyzing Western blots. Resulting data were treated with Image Lab software (version 6.1).
as §3

[5] = system: PANC1 pancreatic cancer cells; assay: as above; type: cell-based; settings: Homo sapiens, PANC-1
Description: as §4, §3

[6] = system: mitochondria (TOMM20) in KP4 cells; assay: Immunofluorescence assay of TOMM20 (mitochondrial morphology); type: cell-based; settings: KP4, 24 h; compound 6 200 µM, metformin 2 mM
Description: Immunofluorescence assay: KP4 cells were seeded at a density of 8 × 10^4 cells per well on top of microscope cover glasses in 6-well plates overnight. They were then treated with vehicle or the studied compounds for 24 h. The culture medium was removed, and cells were washed three times with cold PBS. A solution of 4% paraformaldehyde was added into the wells for fixation for 10 min. Cells were washed again three times with 0.1 M glycine in PBS, then incubated with a solution of 3% BSA and 0.2% […] in PBS for 5 min at room temperature. Cells were washed again three times with a solution of 3% BSA in PBS, then incubated overnight with the primary antibody TOMM20 (1:100 in PBS, pH 7.4, 3% BSA). Cells were washed three times with 3% BSA in PBS and incubated for 1 h with the secondary antibody AF488 (1:2000 in PBS, pH 7.4, 3% BSA). Cells were finally washed three times with 3% BSA in PBS. A drop of mounting medium for fluorescence with DAPI was used to adhere cover glasses to microscope slides.
Antibodies: • I. Tom20 Antibody (F-10) #sc-17764 (Santa Cruz Biotechnology, Dallas, TX, USA): 1:100, 3% BSA in 1X PBS; • II. Goat anti-Mouse IgG (H + L) Highly Cross-Adsorbed Secondary Antibody, Alexa Fluor™ 488 #A-11029 (ThermoFisher/Invitrogen, Waltham, MA, USA): 1:2000, 3% BSA in 1X PBS.

[7] = system: LC3-II in KP4 cells; assay: Immunoblot of LC3-I and LC3-II protein levels (autophagy); type: cell-based; settings: KP4, 24 h; for LC3-II level: relative to DMSO, metformin 200 µM and 2 mM, 7 200 µM, 6 100 and 200 µM
Description: as §1, with “Cells were washed twice with cold PBS and lysed with LAEMMLI 2X (BIO-RAD, Hercules, CA, USA, 4% SDS, 20% glycerol, 0.125 M Tris-HCl (pH 6.8)).” left out

[8] = system: mitochondria in KP4 cells; assay: Cell fluorescence assay: mitochondrial morphology by MitoTracker Deep Red FM confocal microscopy; type: cell-based; settings: for mitochondrial morphology (MTDR): metformin 2 mM, 7 1 mM, 6 50-200 µM
Description: Cell fluorescence assay: KP4 cells were seeded at a density of 8 × 10^4 cells per well on top of microscope cover glasses in 6-well plates overnight. They were then treated with vehicle or the studied compounds for 24 h. The culture medium was refreshed with a solution of the MitoTracker® Deep Red FM (100 nM in DMEM). After 30 min at 37 °C, the medium was removed. Cells were washed twice with PBS and a solution of 4% paraformaldehyde was added into the wells for fixation for 10 min. Cells were washed again three times with 0.1 M glycine in PBS. A drop of mounting medium for fluorescence with DAPI was used to adhere cover glasses to microscope slides.

[9] = Homo sapiens, PANC-1, KP4 and PANC1, text summary, read-out: median effective concentration / concentration of toxic activity on pancreatic cancer cell lines
[10] = Pancreatic cancer cell, 72 h of treatment, mean ± SD, read-out: EC50 KP4
[11] = Pancreatic cancer cell, in Figure 2, read-out: EC50 KP4 (Figure 2)
[12] = 72 h of treatment, mean ± SD, read-out: EC50 PANC1

| EC50 [2, 10] [µM] | EC50 [5, 12] [µM] | EC50 ([5]; in Figure 2, read-out: EC50 PANC1 (Figure 2)) [µM] | SMILES | levels of OXPHOS mitochondrial respiratory chain proteins [1] | EC50 [2, 9] [µM] | EC50 [2, 11] [µM] | EC50 [3] [µM] | EC50 [4] [µM] | effect on healthy cell line IMR90 (toxicity) [4] | mitochondrial morphology (TOMM20 immunofluorescence) [6] | LC3-II level [7] | impact on the growth of cancer cells [2] | effect on healthy cell line hTERT-HPNE (toxicity) [3] | selectivity index (SI) ([2]; cancer cells over healthy cells, 72 h of treatment) | effect on lysosomal degradation of LC3B (LC3-II with and without chloroquine) ([7]; in the presence of chloroquine) | cells displaying a fragmented or punctate mitochondrial network ([8]; KP4, 100 µM, 24 h of treatment, MTDR) | cells maintaining a filamentous network ([8]; KP4, 200 µM (doubling of 100 µM), 24 h, MTDR) [%] | MTDR fluorescence intensity ([8]; KP4, 24 h) | mitochondrial morphology (MTDR) ([8]; KP4, 24 h) |
| --- | --- | --- | --- | --- | --- | --- | --- | --- | --- | --- | --- | --- | --- | --- | --- | --- | --- | --- | --- |
|  |  |  | CCN(CC)CCCC(C)Nc1ccnc2cc(Cl)ccc12 (stereo not drawn) [chloroquine, reference compound] |  |  |  |  |  |  |  | increase in LC3-II levels |  |  |  |  |  |  |  |  |
| > 5000 | > 5000 |  | CC(=O)N[C@@H](CSc1nc2c(=O)[nH]c(N)nc2n1Cc1ccc(F)cc1)C(=O)O [compound 5] |  |  |  | 3510 ± 1450 | > 5000 | without exhibiting toxicity |  |  | no discernible impact | appeared to affect |  |  |  |  |  |  |
| 100 ± 30 | 150 ± 30 | 103 | CC(=O)NC(CSc1nc2c(=O)[nH]c(N)nc2n1Cc1ccc(F)cc1)C(=O)NCCCCCCNC(=N)NC(=N)N.O=CO (stereo not drawn) [compound 6] | decrease in complex I and complex IV mitochondrial respiratory chain proteins | ~100 | 74 | > 1000 | > 1000 | no adverse impact | majority of cells assumed a punctate appearance | mild increase in LC3-II levels |  | no adverse impact | >10 | does not affect the degradation of LC3B | more than 50% | < 10 | decrease in fluorescence intensity | punctate configuration |
| > 1000 | > 1000 |  | CCCCCCNC(=O)C(CSc1nc2c(=O)[nH]c(N)nc2n1Cc1ccc(F)cc1)NC(C)=O (stereo not drawn) [compound 7] | no effect on OXPHOS proteins |  |  | 110 ± 20 | > 1000 | without exhibiting toxicity |  | elevate LC3-II levels | no discernible impact | appeared to affect |  |  |  |  |  | predominantly formed a filamentous network |

| SMILES | EC50 [2, 10] [µM] | EC50 [5, 12] [µM] | EC50 ([5]; in Figure 2, read-out: EC50 PANC1 (Figure 2)) [µM] | levels of OXPHOS mitochondrial respiratory chain proteins [1] | EC50 [2, 9] [µM] | EC50 [2, 11] [µM] | EC50 [3] [µM] | EC50 [4] [µM] | effect on healthy cell line IMR90 (toxicity) [4] | mitochondrial morphology (TOMM20 immunofluorescence) [6] | LC3-II level [7] | impact on the growth of cancer cells [2] | effect on healthy cell line hTERT-HPNE (toxicity) [3] | selectivity index (SI) ([2]; cancer cells over healthy cells, 72 h of treatment) | effect on lysosomal degradation of LC3B (LC3-II with and without chloroquine) ([7]; in the presence of chloroquine) | cells displaying a fragmented or punctate mitochondrial network ([8]; KP4, 100 µM, 24 h of treatment, MTDR) | cells maintaining a filamentous network ([8]; KP4, 200 µM (doubling of 100 µM), 24 h, MTDR) [%] | MTDR fluorescence intensity ([8]; KP4, 24 h) | mitochondrial morphology (MTDR) ([8]; KP4, 24 h) |
| --- | --- | --- | --- | --- | --- | --- | --- | --- | --- | --- | --- | --- | --- | --- | --- | --- | --- | --- | --- |
| CN(C)C(=N)N=C(N)N [Met., Metformin, reference compound] | 1490 ± 550 | 3130 ± 1410 |  | did not appear to affect the levels | 1000 to 4000 | 2210 | > 20000 | > 20000 | no noticeable effect | mild fragmentation of the network |  |  |  |  |  |  |  |  |  |

Source: publication PMC11357661, “Gaining Insight into Mitochondrial Targeting: AUTAC-Biguanide as an Anticancer Agent” (Molecules, 2024)
